Source: ChEMBL document CHEMBL4616632, “Discovery of Cyclic Boronic Acid QPX7728, an Ultrabroad-Spectrum Inhibitor of Serine and Metallo-β-lactamases” (J Med Chem, 2020)

What was measured:
Klebsiella pneumoniae [1] = test: Inhibition of Klebsiella pneumoniae KP1009 CTX-M-15 assessed as minimum concentration of compound required to reduce the MIC of aztreonam to 4 ug/ml
[2] = target: Beta-lactamase (Klebsiella pneumoniae) (UniProt Q93LQ9); test: Inhibition of Klebsiella pneumoniae KP1004 KPC-2 assessed as minimum concentration of compound needed to reduce the MIC of aztreonam to 4 ug/ml
Pseudomonas aeruginosa [3] = test: Inhibition of Pseudomonas aeruginosa PAM 1032 KPC-2 assessed as minimum potentiating concentration of compound needed to reduce the MIC of biapenem by 64 fold
Pseudomonas aeruginosa [4] = test: Inhibition of Pseudomonas aeruginosa PAM 2035 AmpC assessed as minimum concentration of compound needed to reduce the MIC of aztreonam to 4 ug/ml
Enterobacter cloacae = test: Inhibition of Enterobacter cloacae ECL1002 AmpC assessed as minimum concentration of compound needed to reduce the MIC of aztreonam to 4 ug/ml
Escherichia coli [5] = test: Inhibition of Escherichia coli EC302 TEM-10 assessed as minimum concentration of compound needed to reduce the MIC of aztreonam to 4 ug/ml
Pseudomonas aeruginosa [6] = test: Inhibition of Pseudomonas aeruginosa PAM 1154 KPC-2 assessed as assessed as minimum potentiating concentration of compound needed to reduce the MIC of biapenem by 64 fold
[7] = Ratio of inhibition of Pseudomonas aeruginosa PAM 1032 KPC-2 assessed as minimum potentiating concentration of compound needed to reduce the MIC of biapenem by 64 fold to inhibition of Pseudomonas aeruginosa PAM 1154 KPC-2 assessed as assessed as minimum potentiating concentration of compound needed to reduce the MIC of biapenem by 64 fold
Escherichia coli [8] = test: Inhibition of Escherichia coli EC308 SHV-5 assessed as minimum concentration of compound needed to reduce the MIC of aztreonam to 4 ug/ml
Klebsiella pneumoniae [9] = test: Inhibition of Klebsiella pneumoniae KP1081 NDM-1 assessed as minimum concentration of compound needed to reduce the MIC of biapenem to 1 ug/ml
[10] = Inhibition of recombinant Escherichia coli IMP-1 using imipenem as substrate preincubated for 10 mins followed by substrate addition measured every 30 secs for 30 mins by spectrophotometrically analysis
[11] = target: Beta-lactamase (Klebsiella pneumoniae) (UniProt Q93LQ9); test: Inhibition of Klebsiella pneumoniae KP1004 KPC-2 assessed as minimum concentration of compound needed to reduce the MIC of biapenem to 1 ug/ml
[12] = Inhibition of recombinant Escherichia coli NDM-1 using imipenem as substrate preincubated for 10 mins followed by substrate addition and measured every 30 secs for 30 mins by spectrophotometric analysis
[13] = Inhibition of recombinant Escherichia coli SHV-12 using nitrocefin as substrate preincubated for 10 mins followed by substrate addition measured every 10 secs for 10 mins by spectrophotometrically analysis
Klebsiella pneumoniae [14] = test: Inhibition of Klebsiella pneumoniae KP1081 NDM-1 assessed as minimum concentration of compound required to reduce the MIC of biapenem to 1 ug/ml
[15] = Inhibition of recombinant Escherichia coli CTX-M-14 using nitrocefin as substrate preincubated for 10 mins followed by substrate addition measured every 10 secs for 10 mins by spectrophotometrically analysis
BlaVIM-1 = BlaVIM-1 (Escherichia coli, UniProt Q8GDC1); test: Inhibition of recombinant Escherichia coli VIM-1 using nitrocefin as substrate preincubated for 10 mins followed by substrate addition measured every 10 secs for 10 mins by spectrophotometrically analysis
[16] = Inhibition of recombinant Escherichia coli AmpC using nitrocefin as substrate preincubated for 10 mins followed by substrate addition measured every 10 secs for 10 mins by spectrophotometrically analysis
[17] = Inhibition of […] OXA-48 using nitrocefin as substrate preincubated for 10 mins followed by substrate addition measured every 10 secs for 10 mins by spectrophotometrically analysis
[18] = Inhibition of recombinant Escherichia coli OXA-48 using nitrocefin as substrate preincubated for 10 mins followed by substrate addition and measured every 10 secs for 10 mins by spectrophotometric analysis
[19] = target: Class A carbapenemase KPC-2 (Escherichia coli, UniProt A8DS27); test: Inhibition of recombinant Escherichia coli KPC-2 using nitrocefin as substrate preincubated for 10 mins followed by substrate addition and measured every 10 secs for 10 mins by spectrophotometric analysis
Klebsiella pneumoniae [20] = test: Inhibition of Klebsiella pneumoniae KP1086 OXA-48 assessed as minimum concentration of compound needed to reduce the MIC of biapenem to 1 ug/ml
[21] = Drug level in monkey treated with disodium salt of 8-carboxylato-2,2-dihydroxy-7-methoxy-3,4-dihydro-2Hbenzo[e][1,2]oxaborinin-2-uide assessed as compound formation; assay type: ADME, Macaca mulatta; details: rhesus monkey, in vivo
[22] = Drug level in dog treated with disodium salt of 8-carboxylato-2,2-dihydroxy-7-methoxy-3,4-dihydro-2Hbenzo[e][1,2]oxaborinin-2-uide assessed as compound formation; assay type: ADME, Canis lupus familiaris; details: in vivo
Klebsiella pneumoniae [23] = test: Inhibition of Klebsiella pneumoniae KP1054 VIM-1 assessed as minimum concentration of compound required to reduce the MIC of biapenem to 1 ug/ml
Escherichia coli [24] = test: Inhibition of Escherichia coli KP308 SHV-5 assessed as minimum concentration of compound required to reduce the MIC of aztreonam to 4 ug/ml
Klebsiella pneumoniae [25] = test: Inhibition of Klebsiella pneumoniae KP1160 IMP-26 assessed as minimum concentration of compound needed to reduce the MIC of meropenem to 1 ug/ml
[26] = target: Beta-lactamase OXA-23 (Acinetobacter baumannii) (UniProt Q9L4P2); test: Inhibition of Acinetobacter baumannii AB1054 OXA-23 assessed as minimum concentration of compound needed to reduce the MIC of meropenem to 8 ug/ml
[27] = Protein binding in human plasma; assay type: ADME, cell-free; details: read-out: PPB (converted)
Acinetobacter baumannii = test: Inhibition of Acinetobacter baumannii AB1053 OXA-72 assessed as minimum concentration of compound needed to reduce the MIC of meropenem to 8 ug/ml
Escherichia coli [28] = test: Inhibition of Escherichia coli ECM6625 SHV-5 assessed as minimum concentration of compound needed to reduce the MIC of aztreonam to 4 ug/ml
Escherichia coli [29] = test: Inhibition of Escherichia coli ECM6619 TEM-10 assessed as minimum concentration of compound needed to reduce the MIC of aztreonam to 4 ug/ml
[30] = Oral bioavailability in rat at 50 to 75 mg/kg by HPLC/MS analysis; assay type: ADME, organism-based; details: in vivo
[31] = Oral bioavailability in rat; assay type: ADME, organism-based; details: in vivo
[32] = Drug metabolism in monkey assessed as oxidative-deboronation by measuring 2-hydroxy-3-(2-hydroxyethyl)-6-methoxy-benzoic acid formation; assay type: ADME, Macaca mulatta; details: rhesus monkey
[33] = Drug metabolism in dog assessed as oxidative-deboronation by measuring 2-hydroxy-3-(2-hydroxyethyl)-6-methoxy-benzoic acid formation; assay type: ADME, Canis lupus familiaris

Chain of Beta-lactamase (Klebsiella pneumoniae) (Q93LQ9 as listed by the source): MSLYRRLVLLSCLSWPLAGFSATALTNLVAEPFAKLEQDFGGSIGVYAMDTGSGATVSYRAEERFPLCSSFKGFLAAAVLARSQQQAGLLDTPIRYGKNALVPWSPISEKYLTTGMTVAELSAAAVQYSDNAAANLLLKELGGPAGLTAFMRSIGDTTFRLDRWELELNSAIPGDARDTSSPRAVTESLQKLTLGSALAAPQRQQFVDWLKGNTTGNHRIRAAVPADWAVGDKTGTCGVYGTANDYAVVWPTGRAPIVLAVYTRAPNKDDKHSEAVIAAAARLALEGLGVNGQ
Chain of Beta-lactamase OXA-23 (Acinetobacter baumannii) (Q9L4P2 whole entry): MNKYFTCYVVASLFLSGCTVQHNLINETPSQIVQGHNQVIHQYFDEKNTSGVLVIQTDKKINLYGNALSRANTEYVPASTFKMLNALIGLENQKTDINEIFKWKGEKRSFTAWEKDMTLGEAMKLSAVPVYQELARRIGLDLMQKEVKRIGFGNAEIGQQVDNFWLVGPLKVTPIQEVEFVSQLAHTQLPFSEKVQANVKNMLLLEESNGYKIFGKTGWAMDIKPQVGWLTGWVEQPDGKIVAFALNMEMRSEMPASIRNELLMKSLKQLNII
Chain of Class A carbapenemase KPC-2 (A8DS27 whole entry): as the sequence (Q93LQ9 as listed by the source) above

| SMILES | MEC (Klebsiella pneumoniae [1]) | MEC [2] | Activity (Pseudomonas aeruginosa [3]) | MEC (Pseudomonas aeruginosa [4]) | MEC (Enterobacter cloacae) | MEC (Escherichia coli [5]) | Activity (Pseudomonas aeruginosa [6]) | Ratio [7] | MEC (Escherichia coli [8]) | MEC (Klebsiella pneumoniae [14]) | MEC (Klebsiella pneumoniae [23]) | MEC (Klebsiella pneumoniae [25]) | also measured |
| --- | --- | --- | --- | --- | --- | --- | --- | --- | --- | --- | --- | --- | --- |
| COc1ccc2c(c1C(=O)O)OB(O)[C@@H](NC(=O)CSC)C2 | < 0.3 µg/mL | < 0.3 µg/mL | 10 µg/mL | 20 µg/mL | 0.6 µg/mL | < 0.3 µg/mL | 5 µg/mL | 2 | < 0.3 µg/mL |  |  |  |  |
| NC(=O)[C@@H]1CC[C@@H]2CN1C(=O)N2OS(=O)(=O)O [AVIBACTAM] |  | < 0.04 µg/mL |  |  |  |  |  |  |  | > 20 µg/mL |  |  | Activity (Klebsiella pneumoniae [9]): > 20 µg/mL; Ki [10]: > 40000 nM; Activity [11]: < 0.04 µg/mL; Ki [12]: 40000 to 80000 nM; Ki [13]: 0.27 nM; Ki [15]: 0.41 nM; Ki (BlaVIM-1): > 40000 nM; Ki [16]: 10 nM; Ki [17]: 27 nM; Ki [18]: 27 nM; Ki [19]: 11 nM; Activity (Klebsiella pneumoniae [20]): 1.25 µg/mL |
| COc1ccc(CCO)c(O)c1C(=O)O |  |  |  |  |  |  |  |  |  |  |  |  | Drug uptake [21]: Active; Drug uptake [22]: Active |
| CSCC(=O)N[C@H]1Cc2ccc(Sc3nnc(N)s3)c(C(=O)O)c2OB1O | 2.5 µg/mL | 5 µg/mL |  | > 20 µg/mL | 2.5 µg/mL | 2.5 µg/mL |  |  | < 0.3 µg/mL |  |  |  |  |
| CSCC(=O)N[C@H]1Cc2ccc(Sc3nncn3C)c(C(=O)O)c2OB1O | 2.5 µg/mL | 5 µg/mL |  | > 20 µg/mL | 5 µg/mL | 2.5 µg/mL |  |  | < 0.3 µg/mL |  |  |  |  |
| O=C(O)c1cccc2c1OB(O)[C@@H](Sc1nncs1)C2 | > 20 µg/mL | 10 µg/mL |  |  | 20 µg/mL | 20 µg/mL |  |  |  | 0.6 µg/mL | 2.5 µg/mL | 40 µg/mL | Activity (Klebsiella pneumoniae [9]): 0.6 µg/mL; Activity [11]: 0.16 µg/mL; Ki [12]: 24 nM; MEC (Escherichia coli [24]): 2.5 µg/mL; Ki [18]: 1.4 nM; Ki [19]: 150 nM; Activity (Klebsiella pneumoniae [20]): 5 µg/mL |
| COc1ccc2c(c1C(=O)O)OB(O)[C@@H]1C[C@H]21 | 0.3 µg/mL | 0.16 µg/mL |  | 2.5 µg/mL | 0.3 µg/mL | 0.08 µg/mL |  |  |  | 0.3 µg/mL | 0.04 µg/mL | 5 µg/mL | MEC [26]: 1.25 µg/mL; fraction unbound [27]: 0.11; MEC (Acinetobacter baumannii): 0.6 µg/mL; MEC (Escherichia coli [24]): 0.08 µg/mL; MEC (Escherichia coli [28]): 0.08 µg/mL; MEC (Escherichia coli [29]): 0.08 µg/mL |
| O=C(Cc1cccs1)N[C@H]1Cc2cccc(C(=O)O)c2OB1O |  |  | 80 µg/mL |  |  |  | 2.5 µg/mL | 32 |  |  |  |  |  |
| CSCC(=O)N[C@H]1Cc2cccc(C(=O)O)c2OB1O | 0.6 µg/mL | 0.6 µg/mL | 80 µg/mL | 2.5 µg/mL | 0.6 µg/mL | 5 µg/mL | 5 µg/mL | 8 | < 0.3 µg/mL |  |  |  |  |
| COc1ccc2c(c1C(=O)O)OB(O)[C@@H](Sc1nncs1)C2 | 2.5 µg/mL | 1.25 µg/mL |  | 10 µg/mL | 10 µg/mL | 2.5 µg/mL |  |  |  | 0.3 µg/mL | 0.3 µg/mL | 5 µg/mL | MEC [26]: > 20 µg/mL; MEC (Acinetobacter baumannii): > 20 µg/mL; MEC (Escherichia coli [24]): 0.3 µg/mL; bioavailability [30]: 3%; MEC (Escherichia coli [28]): 0.3 µg/mL; MIC (Escherichia coli [29]): 2.5 µg/mL |
| O=C(Cc1cccs1)N[C@H]1Cc2ccc(F)c(C(=O)O)c2OB1O |  |  | 40 µg/mL |  |  |  | 10 µg/mL | 4 |  |  |  |  |  |
| COc1ccc2c(c1C(=O)OCOC(=O)C(C)(C)C)OB(O)[C@@H](Sc1nncs1)C2 |  |  |  |  |  |  |  |  |  |  |  |  | bioavailability [30]: 100% |
| COc1ccc2c(c1C(=O)O)OB(O)CC2 | 0.6 µg/mL | 0.16 µg/mL |  | 1.25 µg/mL | 0.3 µg/mL |  |  |  |  | 0.6 µg/mL | 0.6 µg/mL | > 20 µg/mL | MEC [26]: 0.6 µg/mL; MEC (Acinetobacter baumannii): 0.6 µg/mL; MEC (Escherichia coli [28]): 0.6 µg/mL; bioavailability [31]: 50%; Drug metabolism [32]: Metabolite_Detected; MEC (Escherichia coli [29]): 0.08 µg/mL; Drug metabolism [33]: Metabolite_Detected |
